In PubChem BioAssay AID248 (DTP/NCI, 2004):
Where “and” joins values, the source holds several entries; their conditions need not be identical. Identical values can stand only once. Toxic doses and inconclusive results are not listed.

System: L1210 leukemia ip in BDF1 mice, survival T/C
Assay: NCI In Vivo Anticancer Drug Screen. Data for tumor model L1210 Leukemia (intraperitoneal) in B6D2F1 (BDF1) mice
Conditions: higher = longer survival
Method in brief: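 Transplantable tumor model; survival measured in treated vs vehicle control mice. Value = treated/control.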

Nc1nc(=S)c2ncn(C3CC(O)C(CO)O3)c2[nH]1 (stereo unspecified)
T/C (endpoint: mean survival time, dose: 0.15 mg/kg/injection, schedule: Q01DX015 (ip), vehicle: carboxymethylcellulose (CMC)): 121 % of control | T/C (endpoint: mean survival time, dose: 0.31 mg/kg/injection, schedule: Q01DX009 (ip), vehicle: saline): 119 % of control | T/C (endpoint: mean survival time, dose: 0.32 mg/kg/injection, schedule: Q01DX015 (ip), vehicle: carboxymethylcellulose (CMC)): 124 % of control | T/C (endpoint: mean survival time, dose: 0.62 mg/kg/injection, schedule: Q01DX005 (ip), vehicle: clinical formulation): 153 % of control | T/C (endpoint: mean survival time, dose: 0.62 mg/kg/injection, schedule: Q01DX009 (ip), vehicle: saline): 150 % of control | T/C (endpoint: mean survival time, dose: 0.62 mg/kg/injection, schedule: Q01DX015 (ip), vehicle: carboxymethylcellulose (CMC)): 151 % of control | T/C (endpoint: mean survival time, dose: 0.63 mg/kg/injection, schedule: Q03HX008 (ip), vehicle: saline): 162 % of control | T/C (endpoint: mean survival time, dose: 0.63 mg/kg/injection, schedule: Q03HX024 (ip), vehicle: saline): 167 % of control | T/C (endpoint: mean survival time, dose: 0.9 mg/kg/injection, schedule: Q01DX009 (ip), vehicle: saline with Tween-80): 150 % of control | T/C (endpoint: mean survival time, dose: 1.25 mg/kg/injection, schedule: Q01DX005 (ip), vehicle: clinical formulation): 150 % of control and 171 % of control | T/C (endpoint: mean survival time, dose: 1.25 mg/kg/injection, schedule: Q01DX005 (ip), vehicle: saline): 154 % of control | T/C (endpoint: mean survival time, dose: 1.25 mg/kg/injection, schedule: Q01DX005 (ip), vehicle: water): 163 % of control | T/C (endpoint: mean survival time, dose: 1.25 mg/kg/injection, schedule: Q01DX009 (ip), vehicle: saline): 156 % of control | T/C (endpoint: mean survival time, dose: 1.25 mg/kg/injection, schedule: Q01DX015 (ip), vehicle: carboxymethylcellulose (CMC)): 180 % of control and 218 % of control | T/C (endpoint: mean survival time, dose: 1.25 mg/kg/injection, schedule: Q03HX008 (ip), vehicle: saline): 155 % of control | T/C (endpoint: mean survival time, dose: 1.25 mg/kg/injection, schedule: Q03HX016 (ip), vehicle: saline): 163 % of control | T/C (endpoint: mean survival time, dose: 1.25 mg/kg/injection, schedule: Q03HX024 (ip), vehicle: saline): 157 % of control | T/C (endpoint: mean survival time, dose: 1.56 mg/kg/injection, schedule: Q01DX009 (ip), vehicle: saline): 161 % of control and 173 % of control | T/C (endpoint: mean survival time, dose: 1.87 mg/kg/injection, schedule: Q01DX015 (ip), vehicle: carboxymethylcellulose (CMC)): 113 % of control | T/C (endpoint: mean survival time, dose: 2.5 mg/kg/injection, schedule: Q01DX001 (ip), vehicle: saline): 120 % of control | T/C (endpoint: mean survival time, dose: 2.5 mg/kg/injection, schedule: Q01DX002 (ip), vehicle: Klucel (hydroxypropylcellulose) (HPC)): 177 % of control | T/C (endpoint: mean survival time, dose: 2.5 mg/kg/injection, schedule: Q01DX005 (ip), vehicle: clinical formulation): 173 % of control and 178 % of control | T/C (endpoint: mean survival time, dose: 2.5 mg/kg/injection, schedule: Q01DX005 (ip), vehicle: saline): 171 % of control | T/C (endpoint: mean survival time, dose: 2.5 mg/kg/injection, schedule: Q01DX005 (ip), vehicle: water): 173 % of control | T/C (endpoint: mean survival time, dose: 2.5 mg/kg/injection, schedule: Q01DX009 (ip), vehicle: saline): 161 % of control | T/C (endpoint: mean survival time, dose: 2.5 mg/kg/injection, schedule: Q01DX015 (ip), vehicle: carboxymethylcellulose (CMC)): 155 % of control and 187 % of control | T/C (endpoint: mean survival time, dose: 2.5 mg/kg/injection, schedule: Q03HX008 (ip), vehicle: saline): 156 % of control | T/C (endpoint: mean survival time, dose: 2.5 mg/kg/injection, schedule: Q03HX016 (ip), vehicle: saline): 167 % of control | T/C (endpoint: mean survival time, dose: 2.5 mg/kg/injection, schedule: Q04DX003 (ip), vehicle: saline): 155 % of control | T/C (endpoint: mean survival time, dose: 2.5 mg/kg/injection, schedule: Q08DX002 (ip), vehicle: saline): 124 % of control | T/C (endpoint: mean survival time, dose: 3.12 mg/kg/injection, schedule: Q01DX009 (ip), vehicle: saline): 191 % of control and 206 % of control | T/C (endpoint: mean survival time, dose: 4.5 mg/kg/injection, schedule: Q01DX009 (ip), vehicle: saline with Tween-80): 208 % of control | T/C (endpoint: mean survival time, dose: 5.0 mg/kg/injection, schedule: Q01DX005 (ip), vehicle: clinical formulation): 166 % of control and 202 % of control | T/C (endpoint: mean survival time, dose: 5.0 mg/kg/injection, schedule: Q01DX005 (ip), vehicle: saline): 158 % of control | T/C (endpoint: mean survival time, dose: 5.0 mg/kg/injection, schedule: Q01DX005 (ip), vehicle: water): 192 % of control | T/C (endpoint: mean survival time, dose: 5.0 mg/kg/injection, schedule: Q01DX009 (ip), vehicle: saline): 156 % of control | T/C (endpoint: mean survival time, dose: 5.0 mg/kg/injection, schedule: Q01DX015 (ip), vehicle: carboxymethylcellulose (CMC)): 166 % of control | T/C (endpoint: mean survival time, dose: 5.0 mg/kg/injection, schedule: Q03HX024 (ip), vehicle: saline): 97 % of control | T/C (endpoint: mean survival time, dose: 5.0 mg/kg/injection, schedule: Q04DX003 (ip), vehicle: saline): 152 % of control | T/C (endpoint: mean survival time, dose: 6.0 mg/kg/injection, schedule: Q01DX005 (oral), vehicle: saline): 108 % of control | T/C (endpoint: mean survival time, dose: 6.25 mg/kg/injection, schedule: Q01DX009 (ip), vehicle: saline): 153 % of control | T/C (endpoint: mean survival time, dose: 7.0 mg/kg/injection, schedule: Q01DX015 (ip), vehicle: carboxymethylcellulose (CMC)): 150 % of control | T/C (endpoint: mean survival time, dose: 7.5 mg/kg/injection, schedule: Q01DX015 (ip), vehicle: carboxymethylcellulose (CMC)): 151 % of control | T/C (endpoint: mean survival time, dose: 10.0 mg/kg/injection, schedule: Q01DX005 (ip), vehicle: clinical formulation): 154 % of control and 198 % of control | T/C (endpoint: mean survival time, dose: 10.0 mg/kg/injection, schedule: Q01DX005 (ip), vehicle: saline): 219 % of control | T/C (endpoint: mean survival time, dose: 10.0 mg/kg/injection, schedule: Q01DX005 (ip), vehicle: water): 156 % of control | T/C (endpoint: mean survival time, dose: 10.0 mg/kg/injection, schedule: Q01DX009 (ip), vehicle: saline): 95 % of control | T/C (endpoint: mean survival time, dose: 10.0 mg/kg/injection, schedule: Q01DX015 (ip), vehicle: carboxymethylcellulose (CMC)): 114 % of control | T/C (endpoint: mean survival time, dose: 10.0 mg/kg/injection, schedule: Q03HX008 (ip), vehicle: saline): 86 % of control | T/C (endpoint: mean survival time, dose: 10.0 mg/kg/injection, schedule: Q04DX003 (ip), vehicle: Klucel (hydroxypropylcellulose) (HPC)): 156 % of control | T/C (endpoint: mean survival time, dose: 10.0 mg/kg/injection, schedule: Q04DX003 (ip), vehicle: saline): 170 % of control | T/C (endpoint: mean survival time, dose: 10.0 mg/kg/injection, schedule: Q08DX002 (ip), vehicle: saline): 154 % of control | T/C (endpoint: mean survival time, dose: 12.0 mg/kg/injection, schedule: Q01DX005 (oral), vehicle: saline): 116 % of control | T/C (endpoint: mean survival time, dose: 15.0 mg/kg/injection, schedule: Q01DX015 (ip), vehicle: carboxymethylcellulose (CMC)): 106 % of control and 155 % of control and 236 % of control | T/C (endpoint: mean survival time, dose: 20.0 mg/kg/injection, schedule: Q01DX002 (ip), vehicle: Klucel (hydroxypropylcellulose) (HPC)): 115 % of control | T/C (endpoint: mean survival time, dose: 20.0 mg/kg/injection, schedule: Q01DX005 (ip), vehicle: saline): 97 % of control | T/C (endpoint: mean survival time, dose: 20.0 mg/kg/injection, schedule: Q04DX003 (ip), vehicle: saline): 190 % of control | T/C (endpoint: mean survival time, dose: 20.0 mg/kg/injection, schedule: Q08DX002 (ip), vehicle: saline): 157 % of control | T/C (endpoint: mean survival time, dose: 25.0 mg/kg/injection, schedule: Q01DX009 (ip), vehicle: saline): 94 % of control | T/C (endpoint: mean survival time, dose: 40.0 mg/kg/injection, schedule: Q04DX003 (ip), vehicle: Klucel (hydroxypropylcellulose) (HPC)): 150 % of control | T/C (endpoint: mean survival time, dose: 40.0 mg/kg/injection, schedule: Q08DX002 (ip), vehicle: saline): 168 % of control | T/C (endpoint: mean survival time, dose: 50.0 mg/kg/injection, schedule: Q01DX005 (ip), vehicle: saline): 90 % of control | T/C (endpoint: mean survival time, dose: 50.0 mg/kg/injection, schedule: Q01DX009 (ip), vehicle: saline): 86 % of control | T/C (endpoint: mean survival time, dose: 60.0 mg/kg/injection, schedule: Q04DX003 (oral), vehicle: saline): 120 % of control | T/C (endpoint: mean survival time, dose: 80.0 mg/kg/injection, schedule: Q08DX002 (ip), vehicle: saline): 153 % of control | T/C (endpoint: mean survival time, dose: 96.0 mg/kg/injection, schedule: Q01DX005 (oral), vehicle: saline): 91 % of control | T/C (endpoint: mean survival time, dose: 100.0 mg/kg/injection, schedule: Q01DX005 (ip), vehicle: saline): 155 % of control | T/C (endpoint: mean survival time, dose: 120.0 mg/kg/injection, schedule: Q04DX003 (oral), vehicle: saline): 113 % of control | T/C (endpoint: mean survival time, dose: 125.0 mg/kg/injection, schedule: Q01DX015 (ip), vehicle: carboxymethylcellulose (CMC)): 114 % of control | T/C (endpoint: mean survival time, dose: 145.0 mg/kg/injection, schedule: Q01DX001 (ip), vehicle: saline with Tween-80): 160 % of control | T/C (endpoint: mean survival time, dose: 240.0 mg/kg/injection, schedule: Q04DX003 (oral), vehicle: saline): 119 % of control | T/C (endpoint: mean survival time, dose: 250.0 mg/kg/injection, schedule: Q01DX015 (ip), vehicle: carboxymethylcellulose (CMC)): 96 % of control | T/C (endpoint: mean survival time, dose: 480.0 mg/kg/injection, schedule: Q04DX003 (oral), vehicle: saline): 96 % of control | T/C (endpoint: mean survival time, dose: 960.0 mg/kg/injection, schedule: Q08DX002 (oral), vehicle: saline): 100 % of control | T/C (endpoint: median survival time, dose: 0.06 mg/kg/injection, schedule: Q03HX024 (ip), vehicle: saline): 112 % of control | T/C (endpoint: median survival time, dose: 0.07 mg/kg/injection, schedule: Q03HX024 (ip), vehicle: saline): 112 % of control | T/C (endpoint: median survival time, dose: 0.12 mg/kg/injection, schedule: Q03HX024 (ip), vehicle: saline): 121 % of control | T/C (endpoint: median survival time, dose: 0.13 mg/kg/injection, schedule: Q03HX024 (ip), vehicle: saline): 121 % of control | T/C (endpoint: median survival time, dose: 0.5 mg/kg/injection, schedule: Q03HX024 (ip), vehicle: saline): 101 % of control | T/C (endpoint: median survival time, dose: 1.0 mg/kg/injection, schedule: Q03HX024 (ip), vehicle: saline): 104 % of control | T/C (endpoint: median survival time, dose: 32.0 mg/kg/injection, schedule: Q03HX024 (ip), vehicle: saline): 153 % of control
